According to DBAASP:
Converted amounts (≈) assume the structure as drawn. “And” between values parts separate entries of the source, which are not always exact repeats. Equal values may be shown once. Blank lines part the entries; values can stand above or below the compound they belong to.

Columns and labels:
Assay in all cases: ≥ marks a high value that may be exact or a test limit, other limits are often not marked, values filed in µg/mL are converted to µM
Escherichia coli J2210 = test system: Escherichia coli J2210
Escherichia coli JJ2487 = test system: Escherichia coli JJ2487
Escherichia coli JW0013 = test system: Escherichia coli JW0013
Escherichia coli MC1061 = test system: Escherichia coli MC1061
Escherichia coli O157:H7 = test system: Escherichia coli O157:H7
Escherichia coli UB1005 = test system: Escherichia coli UB1005
[1] = test system: Pseudomonas aeruginosa PAO1
[2] = test system: Salmonella enterica subsp. enterica serovar Enteritidis MH91989
[3] = test system: Salmonella typhimurium SL1344
[4] = test system: Staphylococcus aureus ATCC 25923
[5] = test system: Porphyromonas gingivalis W50
[6] = test system: Staphylococcus aureus ATCC 49525
Escherichia coli K88 = test system: Escherichia coli K88
[7] = test system: Escherichia coli O157:H7 CICC 21530
[8] = test system: Lacticaseibacillus rhamnosus 1.0911
[9] = test system: Lacticaseibacillus rhamnosus 1.0936
[10] = test system: Lacticaseibacillus rhamnosus 1.9021
[11] = test system: Lacticaseibacillus rhamnosus 8014
[12] = test system: Pseudomonas aeruginosa ATCC 27853
[13] = test system: Salmonella enterica subsp. enterica serovar Choleraesuis CVCC 503
[14] = test system: Salmonella enterica subsp. enterica serovar Pullorum C79-13
[15] = test system: Salmonella enterica subsp. enterica serovar Typhimurium ATCC 14028
[16] = test system: Staphylococcus aureus ATCC 29213
[17] = test system: Staphylococcus aureus ATCC 43300
[18] = test system: Staphylococcus epidermidis ATCC 12228
[19] = test system: Streptococcus agalactiae BNCC 185941
[20] = test system: Acinetobacter baumannii 1
[21] = test system: Acinetobacter baumannii ATCC 19606
[22] = test system: Bacillus subtilis ATCC 6633
[23] = test system: Candida albicans 08022710
Candida albicans 08A802 = test system: Candida albicans 08A802
[24] = test system: Candida albicans ATCC 10231
[25] = test system: Candida albicans ATCC 2002
Enterococcus faecalis = test system: Enterococcus faecalis
[26] = test system: Escherichia coli ATCC 25922
[27] = test system: Escherichia coli ATCC 35218
Escherichia coli = test system: Escherichia coli
[28] = test system: Mycobacterium tuberculosis CAS3
[29] = test system: Mycobacterium tuberculosis FYX
[30] = test system: Mycobacterium tuberculosis H37Rv
[31] = test system: Mycobacterium tuberculosis WXY
Pseudomonas aeruginosa = test system: Pseudomonas aeruginosa
[32] = test system: Staphylococcus aureus 08A875
[33] = test system: Staphylococcus aureus ATCC 6538
[34] = test system: Staphylococcus epidermidis

MIC (Escherichia coli J2210): 0.161 µM (≈ 0.39 µg/mL)
MIC (Escherichia coli JJ2487): 0.248 µM (≈ 0.6 µg/mL)
MIC (Escherichia coli JW0013): 0.248 µM (≈ 0.6 µg/mL)
MIC (Escherichia coli MC1061): 0.124 µM (≈ 0.3 µg/mL)
MIC (Escherichia coli O157:H7): 0.991 µM (≈ 2.4 µg/mL)
MIC (Escherichia coli UB1005): 1.03 µM (≈ 2.5 µg/mL)
MIC [1]: 13.2 µM (≈ 32 µg/mL)
MIC [2]: 0.248 µM (≈ 0.6 µg/mL)
MIC [3]: 0.248 µM (≈ 0.6 µg/mL)
MIC [4]: 9.34 µM (≈ 22.6 µg/mL)
SMILES: CC[C@H](C)[C@H](NC(=O)[C@H](CCCN=C(N)N)NC(=O)[C@H](CCCN=C(N)N)NC(=O)[C@@H]1CCCN1C(=O)[C@@H]1CCCN1C(=O)[C@H](CCCN=C(N)N)NC(=O)[C@@H]1CCCN1C(=O)[C@H](CCCN=C(N)N)NC(=O)[C@@H]1CCCN1C(=O)[C@H](CC(C)C)NC(=O)[C@H](Cc1ccc(O)cc1)NC(=O)[C@@H]1CCCN1C(=O)[C@H](CCCCN)NC(=O)[C@H](CCCCN)NC(=O)[C@H](CC(=O)O)NC(=O)[C@@H](N)C(C)C)C(=O)N[C@@H](Cc1ccc(O)cc1)C(=O)N[C@@H](CC(N)=O)C(=O)N[C@@H](CCCN=C(N)N)C(N)=O [VDKKPYLPRPRPPRRIYNR]

MIC [5]: ≥ 70.2 µM
MIC [1]: 5.61 µM and 7.3 µM
MIC [6]: ≥ 58.5 µM
SMILES: CC[C@H](C)[C@H](NC(=O)[C@H](CCCCN)NC(=O)CN)C(=O)N[C@H](C(=O)N[C@@H](CCCCN)C(=O)N[C@@H](CC(C)C)C(=O)N[C@@H](CCCCN)C(=O)N[C@@H](C)C(=O)N[C@@H](CO)C(=O)N[C@@H](CC(C)C)C(=O)N[C@@H](CCCCN)C(=O)N[C@@H](CC(C)C)C(=O)N[C@@H](CC(C)C)C(N)=O)[C@@H](C)CC [GKIIKLKASLKLL]

MIC (Escherichia coli K88): 4 µM (≈ 5.13 µg/mL)
MIC [7]: ≥ 128 µM
MIC [8]: ≥ 128 µM
MIC [9]: ≥ 128 µM
MIC [10]: ≥ 128 µM
MIC [11]: ≥ 128 µM
MIC [12]: 32 µM (≈ 41 µg/mL)
MIC [1]: 16 µM (≈ 20.5 µg/mL)
MIC [14]: 8 µM (≈ 10.3 µg/mL)
MIC [15]: 128 µM (≈ 164 µg/mL)
MIC [16]: > 128 µM
MIC [17]: > 128 µM
MIC [18]: > 128 µM
MIC [19]: ≥ 128 µM
SMILES: CC(C)C[C@H](NC(=O)CNC(=O)[C@H](CCCCN)NC(=O)[C@H](Cc1c[nH]c2ccccc12)NC(=O)[C@H](CCCCN)NC(=O)CNC(=O)[C@H](CC(C)C)NC(=O)[C@H](CC(C)C)NC(=O)[C@@H](N)CCCCN)C(=O)N[C@@H](CC(C)C)C(=O)N[C@@H](CCCCN)C(N)=O [KLLGKWKGLLK]
MIC [13]: ≥ 128 µM

MIC [20]: ≥ 96.5 µM
MIC [21]: 72.4 µM (≈ 150 µg/mL)
MIC [22]: ≥ 72.4 µM
MIC [23]: ≥ 96.5 µM
MIC (Candida albicans 08A802): ≥ 72.4 µM
MIC [24]: > 96.5 µM
MIC [25]: ≥ 96.5 µM
MIC (Enterococcus faecalis): ≥ 72.4 µM
MIC [26]: > 96.5 µM
MIC [27]: ≥ 96.5 µM
MIC (Escherichia coli): > 96.5 µM and 72.4 µM
MIC [28]: 9.05 µM (≈ 18.8 µg/mL)
MIC [29]: 9.05 µM (≈ 18.8 µg/mL)
MIC [30]: 9.05 µM (≈ 18.8 µg/mL)
MIC [31]: 4.53 µM (≈ 9.38 µg/mL)
MIC [12]: > 96.5 µM
MIC (Pseudomonas aeruginosa): > 96.5 µM
MIC [32]: ≥ 72.4 µM
MIC [4]: > 96.5 µM
MIC [33]: > 96.5 µM
MIC [34]: ≥ 96.5 µM
SMILES: CC(C)C[C@H](NC(=O)[C@H](CC(C)C)NC(=O)[C@H](CCCCN)NC(=O)[C@H](CCCCN)NC(=O)[C@@H](NC(=O)[C@H](C)N)C(C)C)C(=O)N[C@@H](CCCN=C(N)N)C(=O)N[C@@H](Cc1c[nH]c2ccccc12)C(=O)N[C@@H](Cc1c[nH]c2ccccc12)C(=O)N[C@@H](CO)C(=O)N[C@@H](CCCN=C(N)N)C(=O)N[C@@H](Cc1c[nH]c2ccccc12)C(=O)N[C@@H](Cc1c[nH]c2ccccc12)C(=O)N[C@@H](CCCCN)C(=O)N[C@@H](CCCCN)C(=O)O [AVKKLLRWWSRWWKK]
